Read-outs that look alike come from different tables or passages of the source.
Assays:
[1] = system: acute cerebral ischemia-reperfusion injury in rats; assay type: in vivo; settings: for Scope of cerebral infarction (%): Edaravone 6.0 mg/kg i.v., TTC staining 24 hours after ischemia, Mean ± SEM, model group 42.53 ± 3.27
[2] = system: primary purified microglia; assay: LPS-induced over activation of primary purified microglia; assay type: cell-based; settings: LPS-stimulated primary microglia; MTT, cellular immunochemistry
Excerpt: Microglia plays an important role in the inflammatory process of the central nervous system. The moderate activation of microglia can protect neurons, but the over activated microglia will release a large number of neurotoxic factors, such as […], which will lead to the occurrence of neurodegenerative diseases. Lipopolysaccharide (LPS) can activate microglia, which leads to the over activation of microglia and the damage of neurons. A5 was used to observe the effect of LPS on the over activation of microglia.
During the experiment, LPS was used to stimulate the primary purified microglia as the control group, and A5 protein was added as the experimental group. For the above treatment, MTT method was used to detect cell viability, and cellular immunochemistry method was used to observe cell morphological changes. […] Therefore, A5 protein can be used to inhibit the over activation of immune cells in the brain, such as microglia.

primary cortical neurons = assay: Oxygen glucose deprivation (OGD) model with primary cortical neurons; assay type: cell-based; settings: 8 hours anoxic culture, A5 in DMEM during 24 hours reoxygenation; CCK-8, flow cytometry
Procedure: Oxygen glucose deprivation (OGD) model is a stimulation model simulating ischemia/hypoxia at the cell level. By changing the cell culture conditions, such as putting the cells into the hypoxia box or into the sugar free medium, the damage of cells under the condition of ischemia/hypoxia is simulated.
OGD model was established with primary cortical neurons. The cells in the culture plate were washed twice with PBS, and then the glucose-free DMEM exchanged with 95% N2+5% CO2 for 30 minutes was added. Then the cells were quickly placed in 37° C., 94% N2+1% O2+5% CO2 hypoxia incubator. After 8 hours of anoxic culture, the corresponding DMEM medium (i.e. DMEM medium containing A5) was added, and then put the plate into a 37° C. 5% CO2 cell incubator for 24 hours of reoxygenation. After 24 hours of culture, morphological changes were observed under inverted microscope, cell survival rate was detected by CCK-8 colorimetry and apoptosis rate was detected by flow cytometry. At the same time, the treatment group of normoxia and normal glucose was set as the control group.

cortical neurons = assay: NMDA-induced excitotoxic damage on cortical neurons; assay type: cell-based, SD rats; settings: A5 pretreatment then NMDA, compared with NMDA group; trypan blue, TUNEL, immunofluorescence
Excerpt: Example 5 studied the neuroprotective effect of A5 protein on NMDA (N-methyl-D-aspartate)—induced excitotoxic damage on cortical neurons in rats. NMDA can activate NMDA receptor to increase Ca^2+ content in brain tissue, and NOS is activated in a large amount, which leads to a series of physiological or pathological changes such as the synthesis of a large number of NO, causing damage to neurons in brain. In order to observe the neuroprotective effect of A5 protein on neuronal damage induced by excitotoxicity, the neuron was pretreated with A5 protein.
In the experiment, 17 day embryonic SD rats were selected and the cortical neurons were cultured. Then the neurons were divided into control group, NMDA group and A5 pretreatment group. The neurons in NMDA group were added with NMDA for exposure, and the neurons in A5 pretreatment group were incubated with A5 protein for a period of time, and then added with NMDA. For different treatment groups, trypan blue staining was used to evaluate cell viability, TUNEL staining was used to detect apoptosis cells and immunofluorescence cytochemistry was used to detect neuron morphology.

[3] = system: co-cultured spontaneously transformed endothelial cell line and purified rat astrocytes; assay: blood-brain barrier (BBB) model in vitro; assay type: cell-based; settings: BBB model injured after stimulation, then treated with A5 protein
Excerpt: Blood brain barrier is composed of three components: brain microvascular endothelial cells, astrocytes and basement membrane. The damage of blood-brain barrier is one of the important pathology of stroke.
In the experiment, the blood-brain barrier model was established by co-culturing spontaneously transformed endothelial cell line and purified rat astrocytes. The blood-brain barrier (BBB) model in vitro was injured after stimulation, and then treated with A5 protein.

SD rats = assay: Toxicity of A5 protein in single intravenous injection in SD rats; assay type: in vivo
Procedure: In this study, A5 protein was injected intravenously once in SD rats to observe the acute toxicity, severity and main toxic target organs. The dosage was 0 (blank adjuvant), 1000, 3000 and 9000 μg/kg respectively. After the intravenous injection, the animal's posture, gait, reaction, nerve activity, appetite, fur, eyes, ears, mouth, nose, limbs, breath, feces and other clinical symptoms were observed continuously. After that, the recovery from toxic reaction was observed continuously until the 14th day after administration. The animals were dissected and examined for macropathology 15 days after administration. […] The maximum-tolerated dose (MTD) of single intravenous injection of A5 protein was more than […].

cynomolgus monkeys = assay: Toxicity of A5 protein in single intravenous injection in cynomolgus monkeys; assay type: in vivo
Procedure: A single intravenous injection of A5 protein was used to observe the acute toxicity and its severity and main toxic target organs in cynomolgus monkeys. The dosage was 0 (blank adjuvant), 500, 1500 and 4500 μg/kg respectively. After the single intravenous injection, observe the clinical symptoms of the animals (including feces, appearance, respiration, nerve reaction, activity status, etc.) until the 15th day after the administration. After administration, the food intake was measured once a day and the body weight was measured once a week. The body temperature, blood pressure and electrocardiograph (ECG) of the animals were measured before and after administration on the day of administration, and again on the 1st, 7th and 15th day of administration. Hematology (including blood coagulation) and serum biochemical examination were carried out for all animals on the 1st, 7th and 15th day after administration, and urine examination was carried out on the 14th day after administration. On the 15th day after administration, the animals were dissected for macropathological examination, and if necessary, for histopathological examination. […] In this experiment, the maximum-tolerated dose (MTD) of cynomolgus monkeys was more than […].

[4] = system: rat model of focal cerebral ischemia; assay: rat model of focal cerebral ischemia established by light irradiation; assay type: in vivo; settings: annexin A5 injected into the caudal vein
Procedure: (§1) It was confirmed by the rat model of ischemia-reperfusion that the annexin A5 could reduce the area of cerebral infarction, improve the symptoms of neurological deficits and promote long-term motor recovery in rats. For example, a rat model of focal cerebral ischemia was established by light irradiation, and then annexin A5 was injected into the caudal vein. […] Take another example, the rat model of hemorrhagic stroke was established by intracerebral injection of autologous arterial blood, and then the rats were injected with annexin A5 injection via caudal vein.

[5] = system: rat model of hemorrhagic stroke; assay: rat model of hemorrhagic stroke by intracerebral injection of autologous arterial blood; assay type: in vivo; settings: annexin A5 injection via caudal vein
Procedure: as §1

| Compound | bleeding risk ([1]; experimental group treated with annexin A5, MCAO rats) | over activation of microglia induced by LPS [2] | damage of neurons caused by oxygen glucose deprivation (primary cortical neurons) | damage of excitatory toxicity to neurons (cortical neurons) | repair of damaged blood-brain barrier [3] | macropathological examination of tissues and organs (SD rats; 15 days after administration) | weight changes (SD rats; female and male animals in the administration group) | clinical symptoms (SD rats; single i.v. 1000, 3000 and 9000 μg/kg, observed to day 14) | prothrombin time (PT), activated partial thromboplastin time (APTT) and thrombin time (TT) (cynomolgus monkeys; 1st day and 15th day after administration) | clinical symptoms, injection site, body weight, food intake, body temperature, blood pressure, ECG, urinalysis, serum biochemical and pathological examination (cynomolgus monkeys; single i.v. 500, 1500 and 4500 μg/kg, to day 15) | area of cerebral infarction [4] | neurological deficit symptoms [4] | area of cerebral infarction [5] | neurological deficit symptoms [5] | Scope of cerebral infarction (%) [1] [%] | Scope of cerebral infarction (%) ([1]; listed as edaravone) |
| --- | --- | --- | --- | --- | --- | --- | --- | --- | --- | --- | --- | --- | --- | --- | --- | --- |
| A5: recombinant human full-length annexin A5 expressed in E. coli, SEQ ID NO:1, 319 amino acids, N-terminal alanine not acetylated | no bleeding risk | inhibit the over activation of microglia induced by LPS | reduce the damage of neurons caused by oxygen glucose deprivation | reduce the damage of excitatory toxicity to neurons | repair the damaged blood-brain barrier | no abnormality was found | normal | normal | no significant change | no significant changes | decreased significantly | improved | decreased | significantly improved |  |  |
| CC1=NN(c2ccccc2)C(=O)C1 [Edaravone] |  |  |  |  |  |  |  |  |  |  |  |  |  |  | 35.93 ± 3.94 | trend of reducing |

Reference: patent US11357823B2, “Method for treating cerebral stroke” (Suzhou Yabao Pharmaceutical R&D Co., Ltd., priority 2019, dated 2022)
